Measured values published in US20260374739A1, “SMALL MOLECULAR WEIGHT CHEMICAL COMPOUND TO ANTAGONIZE EPH-EPHRIN TETRAMERIZATION AND INHIBIT BIDIRECTIONAL SIGNALING” (THE BOARD OF REGENTS OF THE UNIVERSITY OF TEXAS SYSTEM, priority 2022, published 2026).
Entries after “also recorded” stand apart in the source; their conditions may differ.

Key:
EphB2-Fc with EB2-His = molecular target: T1, EphB2-Fc with EB2-His (Mus musculus, UniProt P54763); assay: Alpha assay EphB2-EB2; assay type: binding
T1 construct: soluble EphB ectodomains conjugated to Fc from R&D Systems; mouse EB2-His residues 18-232; purchased R&D Systems (EphB-Fc); Sino Biologicals (EphrinB-His)
Procedure: FIG. 5D depicts results from an alpha assay using EphB2-Fc or EphB4-Fc with EB2-His and increasing A20 concentrations to calculate IC50 determination (~10 μM, similar to that found in FIG. 5C).
Protein interaction assays were developed using soluble EphB ectodomains conjugated to Fc from R&D Systems (e.g., rat EphB1-Fc residues 18-538, which is 99.4% identical to human) and EphrinB ectodomains conjugated to His from Sino Biologicals (e.g., mouse EB2-His residues 18-232, which is 97.7% identical to human). Titrating concentrations of the EphB1-Fc ectodomain (or unconjugated Fc protein as negative control) was added with titrating amounts of the three different EphrinB ectodomains (EB1-His, EB2-His, or EB3-His) with 125 ng each of the Protein A donor, anti-6×-His acceptor beads, 2% DMSO, and 1× HiBlock buffer (all from PerkinElmer) in 384 well plates, and after 3 hr incubation at RT were read in an Envision Multilabel Reader 2102. […] No signal above background (<1,500) was detected for wells that contained an Fc control protein and the EB-His proteins or just the EphB1-Fc protein and no EB-His protein.
A20, E13, and other compounds from the top 32 hits were then characterized in pulldown assays. […]

EphB1-Fc / EB2-His = molecular target: T2, EphB1-Fc / EB2-His (Rattus norvegicus, UniProt P09759); assay: pulldown EB2-His to EphB1-Fc; assay type: binding, mouse EB2; conditions: 50 and 250 μM for A20; listed as A20
T2 construct: mouse (Mus musculus) EB2-His ectodomain, pulldown
Description: A20, E13, and other compounds from the top 32 hits were then characterized in pulldown assays. EphB1-Fc was immobilized onto Protein A agarose beads, then mixed with compounds and the soluble EB2-His ectodomain for 1 hr at RT, after which protein complexes were washed and then bound EB2 was detected by immunoblot using anti-His antibodies.

[1] = test system: EphB2 tyrosine kinase, Cos1 cells; assay: EphB2 kinase activation by pre-clustered EB2-Fc in Cos1 cells, immunoblot; assay type: cell-based; conditions: 30 min, listed as A20
Procedure: (§1) To assess if A20 would reduce the ability of EphrinB2 to stimulate activation of the EphB tyrosine kinase domain in live cells, Cos1 cells that express endogenous EphB2 were exposed to pre-clustered EB2-Fc ectodomains in the presence or absence of A20 for 30 min. […] Stimulated cells were fixed on the coverslip and subjected to immunofluorescence (IF) with anti-Fc antibodies to detect ligand protein bound to receptor, which leads to formation of circular Eph-Ephrin tetramers that then cluster into large obvious spots on the cell surface by lateral migration through the plasma membrane and also contain anti-phosphotyrosine signal indicating activation of the receptor's kinase domain.

EphB2, Cos1 cells = assay: ligand:receptor cluster (spot) formation in Cos1 cells, immunofluorescence; assay type: cell-based; conditions: A20 40 μM; listed as A20
Procedure: FIG. 14 depicts representative fluorescent images and quantification showing that Cos1 cells exposed to pre-clustered EB2-Fc binds to EphB2 forming spots on the cell (green) that also contain phosphotyrosine (red, arrows).
as §1

EphrinB1-EphB2 = EphrinB1-EphB2 (Homo sapiens, UniProt P29323); assay: Octet, immobilized human EphrinB1 binding to human EphB2
Procedure: (§2) Studies were conducted to confirm that A20 chemicals can effectively target the human Eph/Ephrin proteins. Octet system was used to first characterize the biophysical interactions of the human B class Eph and Ephrin proteins, and then was tested to assess how A20 may disrupt the interactions. Since the human and rodent proteins are highly conserved, and essentially identical, with EphB2 sharing 99.5% identity between human and mouse, with only 5 of ~1,000 amino acids different, any species-specific differences were not anticipated. Therefore, commercially available human EphrinB1-Fc (EB1), EphrinB2-Fc (EB2), and EphrinB3-Fc (EB3) ectodomain proteins were sparsely immobilized onto biosensors and then exposed to 50 nM of soluble human EphB1-His, EphB2-His, and EphB4-His ectodomains for 800 sec association and 1,000 sec dissociation steps with a total of nine different interactions analyzed. In the absence of A20 chemical, the immobilized human EphrinB proteins bound to their appropriate human EphB target proteins; with EphrinB1 only bound EphB1 and EphB2, EphrinB2 bound all three EphB1, EphB2, and EphB4, and EphrinB3 only bound EphB1 and EphB2 (FIG. 19A-19B).
(§3) Addition of compound also altered dissociation kinetics. […] This is referred to as the “unsurmountable” component of the Eph-Ephrin interaction (FIG. 21C). Additionally, AUC data was graphed for these runs (FIG. 21D). […]

EphrinB3-EphB2 = EphrinB3-EphB2 (Homo sapiens, UniProt P29323); assay: Octet, immobilized human EphrinB3 binding to human EphB2
Procedure: as §2, §3

[2] = read-out: concentration producing maximum inhibition

T2 sequence (P09759 18-538): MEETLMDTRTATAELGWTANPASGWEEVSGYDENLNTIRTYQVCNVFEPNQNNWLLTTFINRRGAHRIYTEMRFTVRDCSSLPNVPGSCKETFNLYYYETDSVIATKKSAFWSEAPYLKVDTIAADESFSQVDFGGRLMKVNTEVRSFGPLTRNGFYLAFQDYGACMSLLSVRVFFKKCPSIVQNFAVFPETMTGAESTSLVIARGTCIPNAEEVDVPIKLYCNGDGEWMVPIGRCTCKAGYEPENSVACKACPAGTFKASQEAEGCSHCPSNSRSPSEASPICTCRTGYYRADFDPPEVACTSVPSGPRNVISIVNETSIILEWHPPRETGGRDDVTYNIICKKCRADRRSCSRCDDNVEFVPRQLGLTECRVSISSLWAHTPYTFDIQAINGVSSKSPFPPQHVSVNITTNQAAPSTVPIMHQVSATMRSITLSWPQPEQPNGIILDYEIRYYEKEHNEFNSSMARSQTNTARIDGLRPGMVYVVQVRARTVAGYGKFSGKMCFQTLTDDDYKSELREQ
EphrinB3-EphB2, sequence (P29323 19-543 limits assumed): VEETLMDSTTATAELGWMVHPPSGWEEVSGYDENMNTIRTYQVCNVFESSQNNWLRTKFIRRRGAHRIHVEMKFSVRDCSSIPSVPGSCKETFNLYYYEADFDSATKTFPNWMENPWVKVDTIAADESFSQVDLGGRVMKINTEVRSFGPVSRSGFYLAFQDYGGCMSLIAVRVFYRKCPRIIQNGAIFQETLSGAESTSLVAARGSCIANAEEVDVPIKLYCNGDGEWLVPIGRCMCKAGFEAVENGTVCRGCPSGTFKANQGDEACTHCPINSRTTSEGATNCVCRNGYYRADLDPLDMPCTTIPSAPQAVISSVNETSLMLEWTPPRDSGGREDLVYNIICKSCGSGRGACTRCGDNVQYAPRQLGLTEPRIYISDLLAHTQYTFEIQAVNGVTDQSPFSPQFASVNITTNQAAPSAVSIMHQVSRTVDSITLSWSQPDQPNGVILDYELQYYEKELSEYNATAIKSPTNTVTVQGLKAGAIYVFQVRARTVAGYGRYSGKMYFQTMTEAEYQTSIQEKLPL
EphrinB1-EphB2, sequence (P29323 19-543 limits assumed): as above
T1 sequence (P54763 19-543 limits assumed): as the sequence (P29323 19-543 limits assumed) above, with S104L, S154N, Q520K counted along it

Q: Which results are given for `Oc1c(Br)cc(CN2CCOCC2)c2cccnc12` [Compound 5, 7-bromo-5-(morpholinomethyl)quinolin-8-ol]?
A: IC50 (EphB2-Fc with EB2-His): ~10 µM; pulldown EB2-His binding to EphB1-Fc (EphB1-Fc / EB2-His): strongly reduced EB2-His binding to EphB1-Fc; also recorded: reduces the ability of soluble EB2-His to bind to immobilized EphB1-Fc; EphB2 kinase activity [1]: caused a dose-dependent reduction in EphB2 kinase activity; also recorded: antagonizes EB2 stimulation of EphB2 catalytic activity; ligand:receptor clusters on cell (EphB2, Cos1 cells): significantly reduced the ability of pre-clustered EB2-Fc to bind/cluster the EphB2 receptor to spots on the cell; also recorded: reduced the number of ligand: receptor clusters per cell; inhibition at 1 µM (EphrinB1-EphB2; EB1-EphB2, A20, read-out: reduction of tetramers): ~45%; IC (maximum) (EphrinB1-EphB2; [2]): 1 µM; inhibition at 1 µM (EphrinB3-EphB2; EB3-EphB2, A20, read-out: reduction of tetramers): ~45%; IC (maximum) (EphrinB3-EphB2; [2]): 1 µM
